In ChEMBL document CHEMBL1201862, “PubChem BioAssay data set” (2004):
Active and inactive are the calls of the source.

Key:
[1] = inhibitors of intracellular T. cruzi replication, confirmation, NIH3T3 host cells, beta-gal luminescence (AID 2044); type: functional, cell-based;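 also: intracellular parasites grown in NIH/3T3 mouse fibroblasts as host cells; luminescent beta-galactosidase reporter signal from transgenic T. cruzi replicating inside host cells; inhibitors lower the luminescence signal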
[2] = cytotoxicity toward NIH3T3 fibroblasts, dose response, counter-screen, cell-based, ATP luminescence, mouse fibroblasts (AID 2010); type: functional;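 also: cells exposed to compound for about 90 hours before reading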
[3] = target: T1, Rac GTPase-activating protein 1 (Homo sapiens, UniProt Q9H0H5); test: MgcRacGAP GTPase-activating activity inhibitors, confirmation, biochemical, ADP Hunter fluorescence, primary and confirmatory (AID 624330); type: functional
T1 sequence (Q9H0H5 whole entry): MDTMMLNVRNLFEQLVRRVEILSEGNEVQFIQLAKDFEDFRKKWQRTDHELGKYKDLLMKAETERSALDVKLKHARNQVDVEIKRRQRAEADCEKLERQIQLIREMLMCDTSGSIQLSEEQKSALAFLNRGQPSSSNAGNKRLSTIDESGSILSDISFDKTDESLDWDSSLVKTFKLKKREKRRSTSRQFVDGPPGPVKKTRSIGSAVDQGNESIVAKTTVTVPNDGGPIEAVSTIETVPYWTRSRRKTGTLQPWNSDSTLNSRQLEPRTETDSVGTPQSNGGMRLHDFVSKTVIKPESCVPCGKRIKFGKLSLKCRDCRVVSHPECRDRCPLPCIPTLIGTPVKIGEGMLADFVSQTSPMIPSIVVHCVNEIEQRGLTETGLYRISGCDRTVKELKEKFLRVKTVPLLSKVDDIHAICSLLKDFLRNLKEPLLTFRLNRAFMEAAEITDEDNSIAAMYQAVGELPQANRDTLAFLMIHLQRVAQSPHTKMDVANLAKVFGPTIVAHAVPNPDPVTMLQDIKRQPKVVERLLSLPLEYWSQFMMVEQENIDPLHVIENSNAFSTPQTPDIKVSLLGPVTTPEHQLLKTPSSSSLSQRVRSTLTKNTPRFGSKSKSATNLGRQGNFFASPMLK

[4] = Shn3 3'UTR reporter inhibitors, dose response, cell-based, Clone20 osteoblasts, firefly luciferase, cherry-picked (AID 624132); type: functional;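 also: firefly luciferase luminescence from reporter carrying the Shn3 3'UTR in osteoblasts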
[5] = target: T2, Cytochrome P450 1A2 (Homo sapiens, UniProt P05177);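 also: PubChem cytochrome P450 panel assay, CYP1A2 panel member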
T2 sequence (P05177 whole entry): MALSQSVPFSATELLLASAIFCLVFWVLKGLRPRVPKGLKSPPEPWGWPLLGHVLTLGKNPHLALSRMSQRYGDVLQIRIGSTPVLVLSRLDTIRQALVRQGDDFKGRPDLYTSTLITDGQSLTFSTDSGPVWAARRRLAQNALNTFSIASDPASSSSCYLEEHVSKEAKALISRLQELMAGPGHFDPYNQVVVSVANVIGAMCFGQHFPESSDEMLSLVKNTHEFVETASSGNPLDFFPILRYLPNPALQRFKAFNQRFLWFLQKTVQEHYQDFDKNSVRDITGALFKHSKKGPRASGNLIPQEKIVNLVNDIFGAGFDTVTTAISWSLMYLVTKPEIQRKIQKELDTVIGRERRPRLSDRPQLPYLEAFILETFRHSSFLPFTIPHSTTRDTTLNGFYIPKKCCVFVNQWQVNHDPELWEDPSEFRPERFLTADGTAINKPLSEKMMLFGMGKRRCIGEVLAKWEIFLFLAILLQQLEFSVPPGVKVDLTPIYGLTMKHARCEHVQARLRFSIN

[6] = target: Cytochrome P450 2C19 (Homo sapiens, UniProt P33261); test: Cytochrome panel assay with activity outcomes. Panel member name: p450-cyp2c19 Compounds with AC50 equal or less than 10 uM are considered active; type: functional
[7] = target: T3, Corticotropin-releasing factor receptor 2/Corticotropin-releasing factor-binding protein (Homo sapiens, UniProt P24387+Q13324); test: activators of CRF receptor 2 with binding protein – uHTS hits, confirmation (AID 602473); type: functional; details: read-out: EC50_Mean
T3 sequence (Q13324 whole entry): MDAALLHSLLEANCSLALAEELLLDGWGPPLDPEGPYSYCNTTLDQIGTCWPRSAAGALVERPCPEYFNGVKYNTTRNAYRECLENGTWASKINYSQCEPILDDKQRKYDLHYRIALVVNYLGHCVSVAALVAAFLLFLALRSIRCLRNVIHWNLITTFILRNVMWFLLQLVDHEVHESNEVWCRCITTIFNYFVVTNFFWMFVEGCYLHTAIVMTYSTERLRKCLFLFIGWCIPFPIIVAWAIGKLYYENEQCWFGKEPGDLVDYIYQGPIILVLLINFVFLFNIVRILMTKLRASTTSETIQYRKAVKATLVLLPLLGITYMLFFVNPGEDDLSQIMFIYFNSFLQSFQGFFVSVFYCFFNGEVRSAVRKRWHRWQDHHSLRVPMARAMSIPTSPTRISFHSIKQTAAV
T3 sequence (P24387 whole entry): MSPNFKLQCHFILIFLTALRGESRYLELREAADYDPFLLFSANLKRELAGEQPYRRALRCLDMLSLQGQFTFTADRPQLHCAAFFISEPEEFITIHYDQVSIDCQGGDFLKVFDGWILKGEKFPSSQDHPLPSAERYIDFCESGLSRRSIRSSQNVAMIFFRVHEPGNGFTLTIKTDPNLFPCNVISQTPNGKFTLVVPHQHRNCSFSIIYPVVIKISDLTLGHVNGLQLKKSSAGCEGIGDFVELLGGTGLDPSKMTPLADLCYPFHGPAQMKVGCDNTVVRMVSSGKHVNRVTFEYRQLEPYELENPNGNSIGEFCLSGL

[8] = system: Streptococcus; test: Group A Streptococcus viability loss, dose response, counter-screen for streptokinase expression inhibitor project, luminescence, BacTiterGlo (AID 1915); type: functional, organism-based;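 also: potency for reduction of bacterial viability or growth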
[9] = system: Streptococcus sp. 'group A'; test: growth inhibition of control SK(-) GAS strain, dose response, counter-screen for streptokinase expression inhibitor project, luminescence, kanamycin, BacTiterGlo, confirmation (AID 1900); type: functional, organism-based
[10] = Luminescence Cell-Based Dose Response HTS to Identify Activators of Luciferase Translation or Activity in H4 […] Cells. [Related pubchem assays: 1829 (Project Summary), 1814 (Primary HTS)]; type: functional
[11] = system: H4; test: Luminescence Cell-Based Dose Response HTS to Identify Activators of 5'UTR Stem-Loop Driven Prion Protein mRNA Translation in H4 Neuroglioblastoma Cells. [Related pubchem assays: 1829 (Project Summary), 1814 (Primary HTS)]; type: functional; details: Homo sapiens

Chain of Cytochrome P450 2C19 (P33261 whole entry): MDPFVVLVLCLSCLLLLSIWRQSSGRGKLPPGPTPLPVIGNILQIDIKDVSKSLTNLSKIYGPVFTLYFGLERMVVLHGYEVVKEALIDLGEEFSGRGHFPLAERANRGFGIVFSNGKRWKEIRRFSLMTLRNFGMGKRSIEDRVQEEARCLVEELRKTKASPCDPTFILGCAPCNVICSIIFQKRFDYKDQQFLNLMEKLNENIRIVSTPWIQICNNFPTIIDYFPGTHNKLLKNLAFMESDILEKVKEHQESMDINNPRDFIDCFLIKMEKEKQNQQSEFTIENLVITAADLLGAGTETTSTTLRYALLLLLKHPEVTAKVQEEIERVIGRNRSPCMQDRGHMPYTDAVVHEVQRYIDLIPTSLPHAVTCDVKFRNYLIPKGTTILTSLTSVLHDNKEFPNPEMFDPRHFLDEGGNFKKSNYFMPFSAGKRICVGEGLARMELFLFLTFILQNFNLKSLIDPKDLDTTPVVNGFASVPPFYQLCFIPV

Compound: COc1cc(CN2CCCC(CO)(Cc3cccc(Cl)c3)C2)cc2c1OCO2 (stereo not drawn)
- EC50 [1]: 0.419 µM (active)
- EC50 [2]: > 60 µM (not active)

Compound: Cc1ccn2c(S)nnc2c1
- IC50 [3]: 19.4 µM (active)

Compound: Nc1ccc(N2CCCC2)c(S(=O)(=O)Nc2cccc(C(F)(F)F)c2)c1
- IC50 [3]: 120 µM (active)

Compound: Cc1ccc(S(=O)(=O)NCCc2cc3ccc(C)cc3nc2O)cc1
- AC50 [4]: > 70 µM (inactive)

Compound: CCOC(=O)Nc1ccc(OC(=O)Oc2ccc(NC(=O)OCC)cc2)cc1
- IC50 [3]: 31.8 µM (active)

Compound: C1CCC(CNc2c3c(nc4nnnn24)CCCC3)CC1
- EC50 [1]: 1.87 µM (active)
- EC50 [2]: > 60 µM (not active)

Compound: Cc1c(NC(=O)c2ccc(-c3ccc([N+](=O)[O-])cc3Cl)o2)c(=O)n(-c2ccccc2)n1C
- EC50 [1]: 0.839 µM (active)
- EC50 [2]: > 60 µM (inconclusive)

Compound: COc1cccc(/C=N/N2CCN(c3ccncc3S(=O)(=O)N3CCCCC3)CC2)c1
- EC50 [1]: 1.71 µM (active)
- EC50 [2]: > 60 µM (not active)

Compound: CN(C)C(=O)c1ccc(-c2cc(Nc3ccccc3)ncn2)cc1
- AC50 [5]: 12.6 µM (inconclusive)

Compound: C[C@@]12CC[C@H](O)C[C@@H]1CC[C@@H]1[C@@H]2CC[C@@]2(C)[C@@H](C3=CC(=O)OC3)[C@H](O)C[C@]12O
- AC50 [6]: inconclusive

Compound: C[C@H](CCC(=O)O)[C@H]1CC[C@]2(C)[C@@H]3C(=O)C[C@H]4C(C)(C)[C@@H](O)CC[C@]4(C)[C@H]3C(=O)C[C@@]12C
- AC50 [6]: inconclusive

Compound: OCCCCNc1cccc2ccccc12
- IC50 [3]: 22.8 µM (active)

Compound: O=C(Nc1ccccc1)N1CC[C@@]2(CCCN(C(=O)c3ccco3)C2)C1
- AC50 [5]: 10 µM (inconclusive)

Compound: CCCCn1cnc2c(SC)ncnc21
- AC50 [5]: 3.16 µM (inconclusive)

Compound: C[C@@H]1CCc2cc(F)cc3c(=O)c(C(=O)O)cn1c23
- AC50 [5]: 12.6 µM (inconclusive)

Compound: O=C(Nc1cccc(F)c1)N1CC=C(c2ccc(Cl)cc2)CC1
- EC50 [1]: 1.48 µM (active)
- EC50 [2]: > 60 µM (not active)

Compound: CCC(=O)Nc1cccc(-n2nnnc2SCC(=O)N2CCCCC2)c1
- EC50 [7]: 11.7 µM (active)

Compound: Cc1ccc(Cc2cnc(N3C(=N)SC(c4ccccc4)C3=O)s2)cc1 (stereo not drawn)
- EC50 [8]: 5.16 µM (active)
- EC50 [9]: 0.181 µM (active)

Compound: CC1CCC2CCCCC2N1C(=O)c1cc([N+](=O)[O-])cc([N+](=O)[O-])c1 (stereo not drawn)
- EC50 [1]: 0.212 µM (active)
- EC50 [2]: > 60 µM (not active)

Compound: O=C(NC1CCN(Cc2ccccc2)CC1)C1CCN(S(=O)(=O)c2ccccc2)CC1
- EC50 [1]: 0.424 µM (active)
- EC50 [2]: > 60 µM (not active)

Compound: COc1ccc(CN2CCN(Cc3ccc(Br)cc3)CC2)c(OC)c1OC
- IC50 [3]: 70.2 µM (active)

Compound: O=C(O)C1C2C=CC3(CN(Cc4ccccn4)C(=O)C13)O2 (stereo not drawn)
- AC50 [6]: inconclusive

Compound: CCC(=O)Nc1ccc(Nc2ccccc2)cc1
- IC50 [3]: 53.6 µM (active)

Compound: CN1CCN(c2ncc3nc(-c4cccs4)c(=O)n(CCc4ccccc4)c3n2)CC1
- AC50 [5]: 2.51 µM (inconclusive)

Compound: Cc1ccccc1C1c2[nH]c3ccccc3c2C[C@H]2C(=O)N(C3CCN(Cc4ccccc4)CC3)CC(=O)N12 (stereo partly drawn)
- EC50 [1]: 1.98 µM (active)
- EC50 [2]: 13.3 µM (active)

Compound: CC1=NN(c2ccccc2)C(=O)C1C(=O)c1ccc(Cl)cc1 (stereo not drawn)
- AC50 ([6]; read-out: AC50): 39.8 µM (inconclusive)

Compound: CCC(CC)C(=O)NC1CCSC1=O (stereo not drawn)
- AC50 [5]: 39.8 µM (inconclusive)
- AC50 [6]: inconclusive

Compound: COc1cc(/C=N/Nc2nc3ccccc3s2)ccc1O
- IC50 [3]: 69.6 µM (active)

Compound: S=C(NCCN1CCOCC1)Nc1ccc(Nc2ccccc2)cc1
- IC50 [3]: 129 µM (active)

Compound: CCC1CCCCN1CC(=O)c1c(C)[nH]c2ccccc12 (stereo not drawn)
- EC50 [7]: 22.6 µM (active)

Compound: CCC(=O)Nc1ccc2nc(C3CC3)n(Cc3ccc(C(C)(C)C)cc3)c(=O)c2c1
- EC50 [1]: 0.325 µM (active)
- EC50 [2]: > 60 µM (not active)

Compound: COC(=O)N1N=C(c2ccc(Br)cc2)CC1(O)C(F)(F)F (stereo not drawn)
- EC50 [10]: 2.85 µM (active)
- EC50 [11]: 0.745 µM (active)

Compound: Nc1nc(NCCOCCO)nc(N2CCCCCC2)c1[N+](=O)[O-]
- EC50 [8]: 8.6 µM (active)
- EC50 [9]: 5.73 µM (active)

Compound: COC(=O)c1c(-c2ccc3ccccc3c2)csc1NC(=O)Cc1ccc(OC)c(OC)c1
- AC50 [5]: 11.2 µM (inconclusive)

Compound: O=C1[C@H]2C(c3ccccc3)=NN(c3ccccc3)[C@H]2C(=O)N1c1ccccc1
- EC50 [8]: 3.62 µM (active)
- EC50 [9]: 0.614 µM (active)

Compound: CCOc1ccccc1/C=N\Nc1cnn(Cc2ccccc2)c(=O)c1Cl
- EC50 [1]: 3.38 µM (active)
- EC50 [2]: > 60 µM (inconclusive)

Compound: Cc1ccc(C(=O)Nc2c(C#N)c(C)c(C)n2Cc2ccccc2)cc1
- AC50 ([6]; read-out: AC50): 0.447 µM (inconclusive)

Compound: COc1ccc(CNc2ccc(N3CCN(C(C)=O)CC3)cc2)cc1OC
- IC50 [3]: 12 µM (active)

Compound: CCn1cc(CN2CCCC(C(=O)c3cccc(OC)c3)C2)c(C)n1 (stereo not drawn)
- EC50 [1]: 0.426 µM (active)
- EC50 [2]: > 60 µM (inconclusive)

Compound: O=C(NCCCN1CCOCC1)c1ccc(Sc2ccc(F)cc2)c([N+](=O)[O-])c1
- EC50 [1]: 1.01 µM (active)
- EC50 [2]: > 60 µM (inconclusive)

Compound: Cc1ccc(S(=O)(=O)C(C#N)c2nc3ccccc3nc2N2CCCC2)cc1 (stereo not drawn)
- EC50 [7]: > 53 µM (inactive)

Compound: Cc1cc(C)c2c(N)c(C(=O)c3ccccc3)sc2n1
- EC50 [1]: 0.225 µM (active)
- EC50 [2]: > 60 µM (not active)

Compound: Cc1[nH]c2ccccc2c1SCc1nnc(SCc2ccc(Cl)cc2)n1C
- EC50 [1]: 3.54 µM (active)
- EC50 [2]: 12.3 µM (active)

Compound: COc1ccc(CN2CCC(N3CC(C)OC(C)C3)CC2)c(OC)c1OC (stereo not drawn)
- IC50 [3]: 66 µM (active)

Compound: CCN(Cc1ccncc1)C(=O)c1cc(COc2c(C)cccc2C)on1
- EC50 [1]: 1.42 µM (active)
- EC50 [2]: > 60 µM (not active)

Compound: CC(=O)Nc1sc2c(c1C(N)=O)CCCC2
- AC50 ([6]; read-out: AC50): 35.5 µM (inconclusive)

Compound: CCOc1ccccc1N(C)C(=O)c1cc2c(=O)n(CC)c3ccccc3c2s1
- EC50 [1]: 1.43 µM (active)
- EC50 [2]: > 60 µM (not active)
